Data published in patent US4468511A, “C-20- And C-23-Modified macrolide derivatives” (Eli Lilly and Company, priority 1983, dated 1984).
≈ marks a conversion by molar mass, not a printed value. Like-named read-outs stand apart in the source and are kept apart here.

Columns and labels:
[1] = tested on: Staphylococcus epidermidis EPI1; experiment: microbe, parasite or virus in culture; format: cell-based
Method: (§1) The MIC's in Table II were determined by standard agar-dilution assays. The MIC's in Table III were obtained using a conventional broth-dilution microtiter test.

[2] = tested on: Staphylococcus aureus S13E; experiment: microbe, parasite or virus in culture; format: cell-based
Method: as §1

[3] = tested on: Streptococcus pyogenes C203; experiment: MIC, standard agar-dilution assay; format: cell-based
Method: (§2) Certain of the derivatives are active against some gram-negative bacteria, such as Pasteurella species. The MIC's in Table II were determined by standard agar-dilution assays. The MIC's in Table III were obtained using a conventional broth-dilution microtiter test.

[4] = tested on: Streptococcus pneumoniae Park I; experiment: MIC, standard agar-dilution assay; format: cell-based
Method: as §2

[5] = tested on: Klebsiella pneumoniae KAE; experiment: MIC, standard agar-dilution assay; format: cell-based; details: agar-dilution; Klebsiella pneumoniae KAE; read-out: MIC
Summary of the method: (§3)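 The Klebsiella MIC was obtained by agar-dilution assay. Other organisms (Pasteurella hemolytica, Pasteurella multocida, Mycoplasma gallisepticum) were tested by conventional broth microdilution.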

[6] = tested on: Klebsiella pneumoniae X26; experiment: MIC, standard agar-dilution assay; format: cell-based; details: agar-dilution; Klebsiella pneumoniae X26; read-out: MIC
Summary of the method: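 Agar plates containing graded compound levels gave the Klebsiella value. Graded broth dilutions in microtiter plates gave the Pasteurella and Mycoplasma values.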

Escherichia coli EC14 = experiment: MIC, standard agar-dilution assay; format: cell-based; details: agar-dilution; Escherichia coli EC14; read-out: MIC
Method: as §2

[7] = tested on: Staphylococcus aureus V41; experiment: MIC, standard agar-dilution assay; format: cell-based; details: Staphylococcus aureus, V41
Method: as §2

[8] = tested on: Streptococcus pyogenes 9960; experiment: MIC, standard agar-dilution assay; format: cell-based; details: 9960
Method: as §2

[9] = tested on: Staphylococcus aureus X1.1; experiment: MIC, standard agar-dilution assay; format: cell-based
Summary of the method: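 A standard agar-dilution assay was used to test compounds against the Staphylococcus aureus isolate X1.1. Bacterial growth on agar with different compound concentrations was assessed, and the minimum inhibitory concentration was recorded in ug/mL.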

Escherichia coli TEM = experiment: MIC, standard agar-dilution assay; format: cell-based; details: agar-dilution; Escherichia coli TEM; read-out: MIC
Summary of the method: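 Antibacterial activity toward the gram-negative organism Escherichia coli was assessed by conventional agar dilution. The MIC, reported in ug/mL, is the minimum compound concentration on agar that prevents growth.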

[10] = tested on: Streptococcus Group D X66; experiment: MIC, standard agar-dilution assay; format: cell-based
Method: as §2

[11] = tested on: Staphylococcus epidermidis EPI2; experiment: MIC, standard agar-dilution assay; format: cell-based
Method: as §1

[12] = tested on: Staphylococcus aureus X400; experiment: MIC, standard agar-dilution assay; format: cell-based
Method: as §1

[13] = tested on: Haemophilus influenzae C.L.; experiment: MIC, standard agar-dilution assay; format: cell-based; details: agar-dilution; Haemophilus influenzae C.L., Ampicillin-sensitive strain; read-out: MIC
Method: as §1

[14] = tested on: Haemophilus influenzae 76; experiment: MIC, standard agar-dilution assay; format: cell-based
Method: as §1

Mycoplasma synoviae = experiment: MIC, conventional broth-dilution microtiter test; format: cell-based; details: Mycoplasmopsis synoviae
Summary of the method: (§4)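 Two formats were used. Broth dilution in microtiter plates served for Pasteurella and Mycoplasma, while agar dilution served for Klebsiella.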

[15] = tested on: Pasteurella multocida 22A; experiment: MIC, conventional broth-dilution microtiter test; format: cell-based
Summary of the method: as §3

Streptococcus sp. 80 = experiment: MIC, conventional broth-dilution microtiter test; format: cell-based; details: broth-dilution microtiter; Streptococcus sp. 80; read-out: MIC
Method: as §2

Mycoplasma hyorhinis = experiment: MIC, conventional broth-dilution microtiter test; format: cell-based; details: broth-dilution microtiter; Mycoplasma hyorhinis; read-out: MIC
Summary of the method: as §4

[16] = tested on: Pasteurella hemolytica 41D; experiment: MIC, conventional broth-dilution microtiter test; format: cell-based; details: broth-dilution microtiter; Pasteurella hemolytica 41D; read-out: MIC
Summary of the method: as §3

[17] = tested on: Pasteurella hemolytica 23C; experiment: MIC, conventional broth-dilution microtiter test; format: cell-based; details: broth-dilution microtiter; Pasteurella hemolytica 23C; read-out: MIC
Summary of the method: as §3

[18] = tested on: Mycoplasma gallisepticum 34159; experiment: MIC, conventional broth-dilution microtiter test; format: cell-based; details: Mycoplasmoides gallisepticum; broth-dilution microtiter; Mycoplasma gallisepticum 34159, Resistant strain; read-out: MIC
Summary of the method: as §3

[19] = tested on: Pasteurella multocida 17E; experiment: MIC, conventional broth-dilution microtiter test; format: cell-based
Summary of the method: as §3

Mycoplasma gallisepticum = experiment: MIC, conventional broth-dilution microtiter test; format: cell-based; details: Mycoplasmoides gallisepticum; broth-dilution microtiter; Mycoplasma gallisepticum; read-out: MIC
Summary of the method: as §3

[20] = tested on: Mycoplasma gallisepticum 41313; experiment: MIC, conventional broth-dilution microtiter test; format: cell-based; details: Mycoplasmoides gallisepticum; broth-dilution microtiter; Mycoplasma gallisepticum 41313, Resistant strain; read-out: MIC
Summary of the method: as §3

[21] = tested on: Pasteurella multocida 60A; experiment: MIC, conventional broth-dilution microtiter test; format: cell-based
Summary of the method: as §3

[22] = tested on: Pasteurella hemolytica 22C; experiment: MIC, conventional broth-dilution microtiter test; format: cell-based; details: broth-dilution microtiter; Pasteurella hemolytica 22C; read-out: MIC
Summary of the method: as §3

[23] = tested on: Pasteurella multocida 68C; experiment: MIC, conventional broth-dilution microtiter test; format: cell-based
Summary of the method: as §3

[24] = tested on: Pasteurella multocida 40G; experiment: MIC, conventional broth-dilution microtiter test; format: cell-based
Summary of the method: as §3

Staphylococcus aureus = experiment: MIC, conventional broth-dilution microtiter test; format: cell-based; details: broth-dilution microtiter, read-out: MIC
Method: as §2

[25] = tested on: Streptococcus pyogenes C203; experiment: Protection of mice experimentally infected with S. pyogenes C203; format: in vivo; details: mg/kg × 2, doses given 1 and 4 hours postinfection
Method: Some of the derivatives of this invention have shown in vivo antimicrobial activity against experimentally-induced infections in laboratory animals. When two doses of test compound were administered to mice experimentally infected with S. pyogenes C203, the activity observed was measured as an ED50 value [effective dose in mg/kg to protect 50% of the test animals: see Warren Wick, et al., J. Bacteriol. 81, 233-235 (1961)].

[26] = C203, mice, oral, read-out: ED50 Oral
[27] = C203, sc, mice, subcutaneous, read-out: ED50 Subcutaneous

SMILES	MIC [2] [µg/mL]	MIC [5] [µg/mL]	MIC [6] [µg/mL]	MIC (Escherichia coli EC14) [µg/mL]	MIC [7] [µg/mL]	MIC [8] [µg/mL]	MIC (Escherichia coli TEM) [µg/mL]	MIC [13] [µg/mL]	MIC (Streptococcus sp. 80) [µg/mL]	MIC (Mycoplasma hyorhinis) [µg/mL]	MIC [16] [µg/mL]	MIC [17] [µg/mL]	MIC [18] [µg/mL]	MIC (Mycoplasma gallisepticum) [µg/mL]	MIC [20] [µg/mL]	MIC [22] [µg/mL]	MIC (Staphylococcus aureus) [µg/mL]	ED50 [25, 26] [mg/kg]	ED50 [25, 27] [mg/kg]	further results
CCC1OC(=O)CC(O)C(C)C(OC2OC(C)C(OC3CC(C)(O)C(O)C(C)O3)C(N(C)C)C2O)C(CCNCCc2ccccc2)CC(C)C(=O)C=CC(C)=CC1CO (stereo not drawn) [Compound 16]	32 (≈ 37.8 µM)	> 128	128 (≈ 151 µM)	> 128	32 (≈ 37.8 µM)	32 (≈ 37.8 µM)	> 128	64 (≈ 75.6 µM)	12.5 (≈ 14.8 µM)	> 50	> 50	> 50	> 50	6.25 (≈ 7.38 µM)	> 50	> 50	12.5 (≈ 14.8 µM)	88	10.4	MIC ([1]; agar-dilution, Staphylococcus epidermidis EPI1, read-out: MIC): 16 µg/mL (≈ 18.9 µM); MIC ([3]; agar-dilution, Streptococcus pyogenes C203, read-out: MIC): 8 µg/mL (≈ 9.44 µM); MIC ([4]; Streptococcus pneumoniae): 4 µg/mL (≈ 4.72 µM); MIC ([9]; agar-dilution, Staphylococcus aureus X1.1, read-out: MIC): 16 µg/mL (≈ 18.9 µM); MIC [10]: 32 µg/mL (≈ 37.8 µM); MIC ([11]; agar-dilution, Staphylococcus epidermidis EPI2, read-out: MIC): 64 µg/mL (≈ 75.6 µM); MIC ([12]; agar-dilution, Staphylococcus aureus X400, Methicillin-resistant strain, read-out: MIC): 64 µg/mL (≈ 75.6 µM); MIC ([14]; Haemophilus influenzae, 76): 16 µg/mL (≈ 18.9 µM); MIC (Mycoplasma synoviae; broth-dilution microtiter, Mycoplasma synoviae, read-out: MIC): 6.25 µg/mL (≈ 7.38 µM); MIC ([15]; broth-dilution microtiter, Pasteurella multocida 22A, read-out: MIC): > 50 µg/mL; MIC ([19]; broth-dilution microtiter, Pasteurella multocida 17E, Bovine isolate, read-out: MIC): > 50 µg/mL; MIC ([21]; broth-dilution microtiter, Pasteurella multocida 60A, Avian isolate, read-out: MIC): > 50 µg/mL; MIC ([23]; broth-dilution microtiter, Pasteurella multocida 68C, read-out: MIC): > 50 µg/mL; MIC ([24]; broth-dilution microtiter, Pasteurella multocida 40G, read-out: MIC): 50 µg/mL (≈ 59 µM)
CCC1OC(=O)CC(O)C(C)C(OC2OC(C)C(O)C(N(C)C)C2O)C(CCOc2ccccc2)CC(C)C(=O)C=CC(C)=CC1COc1ccccc1 (stereo not drawn) [Compound 32, 20,23-Di-O-phenyl-20-dihydro-OMT]	1 (≈ 1.33 µM)	> 128	> 128	> 128	1 (≈ 1.33 µM)	2 (≈ 2.66 µM)	> 128	> 128	0.048 (≈ 0.0638 µM)	50 (≈ 66.5 µM)	12.5 (≈ 16.6 µM)	12.5 (≈ 16.6 µM)	6.25 (≈ 8.31 µM)	0.78 (≈ 1.04 µM)	25 (≈ 33.2 µM)	12.5 (≈ 16.6 µM)	0.39 (≈ 0.519 µM)	> 50	> 10	MIC ([1]; Staphylococcus epidermidis, EPI1): 1 µg/mL (≈ 1.33 µM); MIC ([3]; Streptococcus pyogenes, C203): 2 µg/mL (≈ 2.66 µM); MIC ([4]; agar-dilution, Streptococcus pneumoniae Park I, read-out: MIC): 0.25 µg/mL (≈ 0.332 µM); MIC ([9]; Staphylococcus aureus, X1.1): 1 µg/mL (≈ 1.33 µM); MIC ([10]; agar-dilution, Streptococcus Group D X66, read-out: MIC): 0.5 µg/mL (≈ 0.665 µM); MIC ([11]; Staphylococcus epidermidis, EPI2): 1 µg/mL (≈ 1.33 µM); MIC ([12]; Staphylococcus aureus, X400): 2 µg/mL (≈ 2.66 µM); MIC ([14]; agar-dilution, Haemophilus influenzae 76, Ampicillin-resistant strain, read-out: MIC): > 128 µg/mL; MIC (Mycoplasma synoviae): 6.25 µg/mL (≈ 8.31 µM); MIC ([15]; Pasteurella multocida, 22A): 3.12 µg/mL (≈ 4.15 µM); MIC ([19]; Pasteurella multocida, 17E): 3.12 µg/mL (≈ 4.15 µM); MIC ([21]; Pasteurella multocida, 60A): 3.12 µg/mL (≈ 4.15 µM); MIC ([23]; Pasteurella multocida, 68C): 3.12 µg/mL (≈ 4.15 µM); MIC ([24]; Pasteurella multocida, 40G): 3.12 µg/mL (≈ 4.15 µM)
